One test concerns the target T1, TR beta LBD-GST (Homo sapiens, UniProt P10828).
T1 construct: incubated with the TR alpha LBD-GST or TR beta LBD-GST; purchased ThermoFIsher
T1 sequence (P10828 217-461 limits assumed): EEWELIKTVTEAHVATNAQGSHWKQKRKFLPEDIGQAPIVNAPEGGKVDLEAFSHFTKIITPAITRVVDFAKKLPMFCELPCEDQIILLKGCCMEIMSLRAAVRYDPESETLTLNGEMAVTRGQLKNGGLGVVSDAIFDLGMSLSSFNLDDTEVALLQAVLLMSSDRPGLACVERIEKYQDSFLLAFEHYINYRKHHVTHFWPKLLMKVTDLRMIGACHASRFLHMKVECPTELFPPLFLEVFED
The experiment in a line: Thyroid Receptor Beta Coactivator - Agonist (LanthaScreen TR-FRET coactivator recruitment assay). Particulars: 1% DMSO, relative to T3 response. In kind it is biochemical. How it is done:
Thyroid receptor beta and thyroid receptor alpha coactivator recruitment assays were performed using LanthaScreen™ TR-FRET TR alpha or beta Coactivator Assay Kits (ThermoFIsher). The control agonist 3,3′,5-Triiodo-L-thyronine sodium salt, T3 (SIGMA) was used to validate the assay. Test compound and/or vehicle was incubated with the TR alpha LBD-GST or TR beta LBD-GST and coactivator peptide (Fluorescein-SRC2-2 (LKEKHKILHRLLQDSSSPV) (SEQ ID NO: 1)) for 30 minutes at RT. Determination of the amount of complex formed was read spectrofluorimetrically (excitation: 337 nm, emission: 520/490 nm) on a PHERAstar FS instrument (BMG). […] Compounds were screened at 30, 10, 3, 1, 0.3, 0.1, and 0.03 μM.
(Time-resolved FRET reads energy transfer from a long-lived donor to a nearby acceptor.)

For a further test, the target named is T2, TR alpha LBD-GST (Homo sapiens, UniProt P10827).
T2 construct: incubated with the TR alpha LBD-GST or TR beta LBD-GST; purchased ThermoFIsher
T2 sequence (P10827 163-410 isoform P10827-2 limits assumed, other chains not shown): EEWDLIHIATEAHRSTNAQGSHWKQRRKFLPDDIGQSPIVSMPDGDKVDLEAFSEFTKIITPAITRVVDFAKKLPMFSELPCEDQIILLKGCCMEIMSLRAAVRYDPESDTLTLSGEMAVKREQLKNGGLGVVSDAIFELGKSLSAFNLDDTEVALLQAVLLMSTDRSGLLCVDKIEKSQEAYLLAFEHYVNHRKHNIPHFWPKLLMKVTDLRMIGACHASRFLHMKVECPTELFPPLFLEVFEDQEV
Description: Thyroid Receptor Alpha Coactivator - Agonist (LanthaScreen TR-FRET coactivator recruitment assay). It counts as biochemical. Particulars: 1% DMSO, relative to T3 response. The method, then: Thyroid receptor beta and thyroid receptor alpha coactivator recruitment assays were performed using LanthaScreen™ TR-FRET TR alpha or beta Coactivator Assay Kits (ThermoFIsher). The control agonist 3,3′,5-Triiodo-L-thyronine sodium salt, T3 (SIGMA) was used to validate the assay. Test compound and/or vehicle was incubated with the TR alpha LBD-GST or TR beta LBD-GST and coactivator peptide (Fluorescein-SRC2-2 (LKEKHKILHRLLQDSSSPV) (SEQ ID NO: 1)) for 30 minutes at RT. Determination of the amount of complex formed was read spectrofluorimetrically (excitation: 337 nm, emission: 520/490 nm) on a PHERAstar FS instrument (BMG). […]

Consider `N#Cc1cn(-c2cc(Cl)c(Oc3n[nH]c(=O)c4ccccc34)c(Cl)c2)c(=O)[nH]c1=O` [Compound g, 1-(3,5-dichloro-4-((4-oxo-3,4-dihydrophthalazin-1-yl)oxy)phenyl)-2,4-dioxo-1,2,3,4-tetrahydropyrimidine-5-carbonitrile], for which the “Agonist Response” value is given as −4.5 at TR beta LBD-GST (test compound 10 nM); −1.2 at TR beta LBD-GST (test compound 0.03 mcM); 0.7 at TR beta LBD-GST (test compound 0.1 mcM); 10.5 on TR beta LBD-GST (test compound 0.3 mcM); 28.7 on TR beta LBD-GST (test compound 1 mcM); 31.1 on TR beta LBD-GST (test compound 3 mcM). In addition, the “Agonist Response” value is 32.6 at TR beta LBD-GST (test compound 10 mcM); 31.8 at TR beta LBD-GST (test compound 30 mcM); 1.1 on TR alpha LBD-GST (test compound 10 nM); 1.4 at TR alpha LBD-GST (test compound 0.03 mcM); 2.2 at TR alpha LBD-GST (test compound 0.1 mcM); 3.9 on TR alpha LBD-GST (test compound 0.3 mcM). The “Agonist Response” value was 12.7 on TR alpha LBD-GST (test compound 1 mcM), 19.2 on TR alpha LBD-GST (test compound 3 mcM), 19.5 on TR alpha LBD-GST (test compound 10 mcM) and 18.6 at TR alpha LBD-GST (test compound 30 mcM).

These data come from US20250154130A1, “NOVEL THR BETA ANALOGS AND USES THEREOF” (MADRIGAL PHARMACEUTICALS, INC., priority 2022, published 2025).
